Measured values reported in patent US20220055989A1, “CONDENSED PYRROLES AS NOVEL BROMODOMAIN INHIBITORS” (ALBERT LUDWING UNIVERSITÄT FREIBURG, priority 2018, published 2022).

Key:
Type in all cases: binding
bromodomains = assay: Bromodomain profiling (BROMOscan), summary over the panel; conditions: compared to the compound of formula (23); bromodomains of Table 3
Description: Bromodomain profiling was carried out on the basis of BROMOscan™. This platform accounted for the indirect determination of the dissociation constants between 19 bromodomains and the compound of formula (13), by binding competition against a reference immobilized ligand.
Compounds that bind the bromodomain prevent its binding to the immobilized ligand thus reducing the amount of protein captured. […] Hits are identified by measuring the amount of bromodomain captured in test versus control samples.
Bromodomain assays for Kd determination: T7 phage strains displaying bromodomains were grown in parallel in 24-well blocks in an E. coli host derived from the BL21 strain. E. coli were grown to log-phase and infected with T7 phage from a frozen stock (multiplicity of infection=0.4) and incubated with shaking at 32° C. until lysis (90-150 minutes). The lysates were centrifuged (5,000×g) and filtered (0.2 μm) to remove cell debris. […] Kds were determined using an 11-point 3-fold compound dilution series with one DMSO control point. […] The bromodomain concentration in the eluates was measured by qPCR.
Bromodomain assays for % Ctrl determination: T7 phage strains displaying bromodomains were grown in parallel in 24-well blocks in an E. coli host derived from the BL21 strain. […] The bromodomain concentration in the eluates was measured by qPCR.

BRD2(1) = target: T1, BRD2(1) (Homo sapiens, UniProt P25440); assay: BROMOscan Kd determination BRD2(1)
T1 construct: T7 phage strains displaying bromodomains were grown in parallel; made in house; host or cells: T7 phage grown in an E. coli host derived from the BL21 strain
Description: (§1) Bromodomain profiling was carried out on the basis of BROMOscan™. This platform accounted for the indirect determination of the dissociation constants between 19 bromodomains and the compound of formula (13), by binding competition against a reference immobilized ligand. Compounds that bind the bromodomain prevent its binding to the immobilized ligand thus reducing the amount of protein captured. […] Hits are identified by measuring the amount of bromodomain captured in test versus control samples. Bromodomain assays for Kd determination: T7 phage strains displaying bromodomains were grown in parallel in 24-well blocks in an E. coli host derived from the BL21 strain. E. coli were grown to log-phase and infected with T7 phage from a frozen stock (multiplicity of infection=0.4) and incubated with shaking at 32° C. until lysis (90-150 minutes). The lysates were centrifuged (5,000×g) and filtered (0.2 μm) to remove cell debris. […] Kds were determined using an 11-point 3-fold compound dilution series with one DMSO control point. […] The bromodomain concentration in the eluates was measured by qPCR. […] Most Kds were determined using a compound top concentration=10,000 nM. […] Binding Constants (Kds): Binding constants (Kds) were calculated with a standard dose-response curve using the Hill equation: The Hill Slope was set to −1. […]

BRD3(1) = target: T2, BRD3(1) (Homo sapiens, UniProt Q15059); assay: BROMOscan Kd determination BRD3(1)
T2 construct: T7 phage strains displaying bromodomains were grown in parallel; made in house; host or cells: T7 phage grown in an E. coli host derived from the BL21 strain
Description: as §1

BRD3(2) = target: T3, BRD3(2) (Homo sapiens, UniProt Q15059); assay: BROMOscan Kd determination BRD3(2)
T3 construct: T7 phage strains displaying bromodomains were grown in parallel; made in house; host or cells: T7 phage grown in an E. coli host derived from the BL21 strain
Description: as §1

BRD4(2) = target: T4, BRD4(2) (Homo sapiens, UniProt O60885); assay: BROMOscan Kd determination BRD4(2)
T4 construct: T7 phage strains displaying bromodomains were grown; host or cells: T7 phage in E. coli derived from BL21
Description: as §1

BRDT(1, 2) = target: T5, BRDT(1, 2) (Homo sapiens, UniProt Q58F21); assay: BROMOscan Kd determination BRDT(1, 2)
T5 construct: T7 phage strains displaying bromodomains were grown; host or cells: T7 phage in E. coli derived from BL21
Description: as §1

BRDT(2) = target: T6, BRDT(2) (Homo sapiens, UniProt Q58F21); assay: BROMOscan Kd determination BRDT(2)
T6 construct: T7 phage strains displaying bromodomains were grown; host or cells: T7 phage in E. coli derived from BL21
Description: as §1

T3 sequence (Q15059 306-415 limits assumed): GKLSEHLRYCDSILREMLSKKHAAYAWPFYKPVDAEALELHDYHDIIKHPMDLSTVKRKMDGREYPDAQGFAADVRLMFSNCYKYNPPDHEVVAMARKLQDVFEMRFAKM
T1 sequence (P25440 74-180 limits assumed): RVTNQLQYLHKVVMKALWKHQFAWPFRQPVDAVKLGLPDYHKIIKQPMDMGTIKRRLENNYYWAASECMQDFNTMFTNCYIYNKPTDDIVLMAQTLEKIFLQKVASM
T2 sequence (Q15059 34-140 limits assumed): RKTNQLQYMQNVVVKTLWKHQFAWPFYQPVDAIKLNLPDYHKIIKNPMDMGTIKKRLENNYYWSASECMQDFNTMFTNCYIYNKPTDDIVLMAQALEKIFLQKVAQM

Kd (BRD2(1)) | Kd (BRD3(1)) | Kd (BRD3(2)) | Kd (BRD4(2)) | Kd (BRDT(1, 2)) | Kd (BRDT(2)) | Compound | selectivity for certain bromodomains evaluated (bromodomains)
 |  |  |  |  |  | CCCCc1[nH]c(-c2cc(N)ccc2Cl)c2c1C(=O)CCCC2 [Compound 27, 1-(5-Amino-2-chlorophenyl)-3-butyl-5,6,7,8-tetrahydrocyclohepta[c]pyrrol-4(2H)-one] | higher selectivity for certain bromodomains
 |  |  |  |  |  | CCCc1[nH]c(-c2cc(N)ccc2Cl)c2c1C(=O)CCCC2 [Compound 26, 1-(5-Amino-2-chlorophenyl)-3-propyl-5,6,7,8-tetrahydrocyclohepta[c]pyrrol-4(2H)-one] | higher selectivity for certain bromodomains
130 nM | 170 nM | 330 nM | 270 nM | 420 nM | 620 nM | Cc1[nH]c(-c2cc(N)ccc2Cl)c2c1C(=O)CCCC2 [Compound 23] | 
45 nM | 100 nM | 140 nM | 220 nM |  | 1000 nM | COc1ccc(S(=O)(=O)N2CCOCC2)cc1NC(=O)c1[nH]c(C)c2c1CCCCC2=O [Compound 13, N-(2-methoxy-5-(morpholinosulfonyl)phenyl)-3-methyl-4-oxo-2,4,5,6,7,8-hexahydrocyclohepta[c]pyrrole-1-carboxamide] | 
